Measured values taken from patent publication US8354381B2, “Peptide compositions for oral care systems” (E I du Pont de Nemours and Company, priority 2009, dated 2013).
Blank lines part the entries; values can stand above or below the molecule they belong to. Where no end group is shown, it is not given here. The star is where a group is joined. Biotin = O=C1N[C@H]2[C@H](CS[C@H]2CCCCC(=O)*)N1

Legend:
[1] = Phage ELISA, bovine polished enamel-binding assay; conditions: over 10^10 pfu phage, A450
Description: A total of 11 selected phage candidates (Example 3) was used in a phage ELISA experiment. Purified phage lysates were used for binding to the enamel blocks using an anti-M13 phage antibody conjugated to horseradish-peroxidase, followed by the addition of chromogenic agent TMB. The plates were read at A450 nm.
For each phage candidate to be tested, the polished and unpolished enamel blocks were incubated for 1 h at room temperature with 200 μL of blocking buffer, consisting of 2% non-fat dry milk (Schleicher & Schuell, Inc.) in TBS. […] The tube was rinsed 6 times with wash buffer consisting of TBST-0.05%. The wells were filled with 200 μL of TBST-0.5% containing 1 mg/mL BSA and then 10 μL (over 10^10 pfu) of purified phage stock was added. The samples were incubated at room temperature for 60 min with slow shaking. The non-binding phage was removed by washing 6 times with TBST-0.5%. […] The conjugate solution was removed and was washed 6 times with TBST-0.5%. […] BoEn P means bovine polished enamel and BoEn means bovine enamel.

[2] = tested on: pellicle coated enamel substrates; conditions: 20 μM biotinylated peptide, streptavidin-HRP, normalized to DenP03, three replicates
Description: A total of 20 synthetic peptides were manufactured using sequences obtained from Table 6. Peptides were obtained from SynBioSci Corp. (Livermore, Calif.) and included an additional sequence (SSRP; SEQ ID NO: 118) at the N-terminus and biotin labeled lysine at the C-terminus.
Enamel substrates were cut into approximately 7 mm squares and mounted on wax mounting for incubation in the mouth for 30 min to form a pellicle coated surface. The pellicle coated enamel substrates were removed from the wax backing and placed in well plates with the pellicle surface exposed as in Example 5. Each pellicle coated substrate was incubated for 1 h at room temperature (˜22° C.) with 1 mL of blocking buffer, consisting of 1 mg/mL BSA in PBST (Pierce BUPH™ #28372 with 0.1% TWEEN® 20). The blocking buffer was removed by aspirating the liquid out of each well. The tube was rinsed 2 times with wash buffer consisting of PBST. The wells were filled with 500 μL of 20 μM peptide solution which was prepared by diluting in blocking buffer. The samples were incubated for 30 min with slow shaking at 37° C. The non-binding peptide was removed by washing 6 times with PBST. Then, 500 μL of horseradish peroxidase/streptavidin conjugate (Pierce #22127), diluted 1:2000 in PBST, was added and incubated for 1 h at room temperature (˜22° C.). The conjugate solution was removed and was washed 4 times with PBST.
Each enamel substrate was removed from the well and washed again in a 15-mL test tube with 10 mL of PBST. Each enamel substrate was then mounted in a clean well plate with only the enamel surface exposed. A 1:1 solution of TMB substrate and H2O2 (200 μL) was added to each well and the color was allowed to develop for between 10 to 20 min, typically for 15 min, at room temperature (˜22° C.). Then, 100 μL of solution from each well was transferred to a 96 well reading plate containing stop solution (100 μL of 2 M H2SO4) in each well. The A450 was measured using a microplate spectrophotometer (Molecular Devices, Sunnyvale, Calif.). […] Each sequence was tested with three replicate enamel coated pellicle substrates.

[3] = tested on: Pellicle Surface; conditions: read-out: MB50; biotinylated peptide, 30 min in vivo pellicle on enamel, from Scatchard plots
Description: The pellicle coated enamel substrates were removed from the wax backing and placed in well plates with the pellicle surface exposed as in Example 5. […] The blocking buffer was removed by aspirating the liquid out of each well. […] The samples were incubated for 30 min with slow shaking at 37° C. The non-binding peptide was removed by washing 6 times with PBST. […] The conjugate solution was removed and was washed 4 times with PBST.
Each enamel substrate was removed from the well and washed again in a 15-mL test tube with 10 mL of PBST. Each enamel substrate was then mounted in a clean well plate with only the enamel surface exposed.

[4] = Peptide-mediated adhesion of streptavidin-coated gold particles on enamel, SEM; assay type: binding, bovine; conditions: 20 μM peptide, then 50 nm streptavidin gold nanoparticles; SEM at 10000X
Description: Bovine enamel incisors were obtained from SE Dental (Baton Rouge, La.). Teeth are sectioned and cut into enamel slabs approx. 5 mm on each side using a DREMEL® saw with a diamond blade. The enamel blocks are cleaned and place each in a plastic microcentrifuge tube.
Each enamel block was incubated for 45 min in phosphate buffered saline with 0.1% TWEEN® 20 (PBST) and 1 mg/mL bovine serum albumin (BSA) at room temperature (22° C.). All blocks were rinsed with PBST twice while vortexing in the microcentrifuge tube. The peptides were first diluted to 10 mM in water and then a working concentration of 20 μM was prepared in PBST with 1 mg/mL BSA. Each sample was exposed to the peptide solution or a no peptide buffer control for 30 min at room temperature. The samples were slowly rotated during incubation. The enamel blocks were removed from the peptide solution and washed four times with PBST with vortexing.
50 nm gold nanoparticles functionalized with streptavidin were obtained from Nanocs Inc (New York, N.Y.) and diluted to 0.006% wt in PBST with 1 mg/mL BSA. All enamel samples were then exposed to the gold nanoparticle solution for 1 hr at room temperature with slow rotation. […]
Each enamel sample was examined with Electron Microscopy. […] Particles were counted per micrograph and the density of particle coverage was compared (Table 14).

[5] = tested on: pellicle-coated enamel substrates; experiment: Tooth whitening with sequentially applied peptide and silica-coated TiO2, colour measurement; design: species or system bovine; conditions: 20 μM peptide 30 min, then 1% silica-coated TiO2 30 min; three replicate teeth
Description: Silica-coated rutile titanium dioxide (Luce II WW) was obtained from US Cosmetics Corp. (Dayville, Conn.). A 12 wt % solution of the pigment was prepared with Millipore water. The solution was dispersed by horn sonication using a Branson Sonifier 150 at 10 W. The solution was sonicated in an ice bath for 6 min total, with 2 min sonication intervals. A working solution of 1 wt % in 10 mM sodium phosphate buffer at pH7.2 was made for application to peptide coated enamel. A 0.01% solution of this dispersion diluted in the same buffer was measured on a Malvern Zetasizer Nano dynamic light scattering instrument.
Bovine enamel incisors were obtained from SE Dental (Baton Rouge, La.). Teeth were sectioned and cut into enamel slabs approx. 7 mm on each side using a DREMEL® saw with a diamond blade. The enamel slabs were cleaned and lightly polished to remove surface debris. The enamel was pretreated with a mixture of coffee and tea in order to stain to a color similar to human stained teeth. Each enamel block was then mounted on wax mounting and sterilized with ethylene oxide. […] The mounted enamel blocks were brushed with a toothbrush and a 1:2 dilution of COLGATE® MAXFRESH® toothpaste (Colgate-Palmolive Co., New York, N.Y.) and then reinserted into the mouth for 1 minute. […] Each pellicle coated enamel slab was measured for color using a Konica-Minolta 2600d integrating sphere spectrophotometer.
Peptides listed in Table 15 were dissolved into pH 7.2 PBS buffer at a concentration of 20 μM. Three replicate teeth were used for each experimental condition. Each tooth was incubated with peptide solution for 30 min or buffer alone as a control. The enamel blocks were removed from the peptide solution and rinsed with PBS buffer. The enamel blocks were then incubated in the 1% solution of silica-coated TiO2 for 30 min. The enamel blocks were removed, rinsed with 10 mM phosphate buffer and blotted dry. Each substrate was measured for color (L, a*, b*, C*, h) values. The total color difference, Delta E*ab and the Metric Hue Difference, Delta H*ab, for the whitening process were calculated using equations (1) and (2) below: Delta E*ab=((L*1−L*2)^2+(a*1−a*2)^2+(b*1−b*2)^2)^1/2 (1) Delta H*ab=(2(C*1C*2−a*1a*2−b*1b*2))^1/2 (2) where L*=the lightness variable, a* and b* are the chromaticity coordinates and C* is the chroma of CIELAB colorspace as defined by the International Commission of Illumination (CIE) and described in ASTM D2244-09b and subscript 1 denotes the initial color value and subscript 2 denotes the final color value.

[6] = Peptide-mediated deposition of Co-NTA beads on bovine enamel, SEM; assay type: binding; conditions: 20 μM peptide, then Co-NTA TALON beads; SEM at 5000X
From the text: Bovine enamel incisors were obtained from SE Dental (Baton Rouge, La.). Teeth were sectioned and cut into enamel slabs approx. 5 mm on each side using a DREMEL® rotary (Robert Bosch LLC, Farmington Hills, Mich.) saw with a diamond blade. The enamel slabs were cleaned and embedded in a well plate contained molding material so as to only expose the enamel surface in the well.
Polystyrene beads with cobalt-NTA coating (DYNABEADS® TALON®) were obtained from Invitrogen (item#101.02D) as a slurry of 40 mg/mL. The slurry (50 μL; 2 mg beads) was resuspended and washed with 700 μL of binding buffer (50 mM sodium phosphate, pH 8.0, 300 mM NaCI, 0.01% TWEEN® 20) in preparation for His6 binding.
Peptides were dissolved in phosphate buffered saline (Pierce, pH 7.2) at a concentration of 20 μM. Peptide solution (500 μL) was placed in each well containing an enamel slab. Enamel slabs exposed to only PBS in this step were used as a control. Samples were incubated with peptide solution with gentle agitation for 30 min. The peptide solution and PBS were removed from the well plate and each well was rinsed 3 times with repeated additions of PBS. TALON® beads (50 μL) were added to each well and incubated with gentle agitation for 30 min. The TALON® solution was removed and the samples were washed three times with the same binding buffer.
Each enamel sample was removed from the well plate and rinsed again with buffer. […] The enamel slabs were further examined by Electron Microscopy (Hitachi TM-1000 Tabletop SEM Microscope) at 1000×, 2500× and 5000× magnification. […] Little to no beads were found on the no peptide control. […]

O.D.450 [1]: 0.83
Molecule: NTCQPTKNATPCSA (Synthetic oral-surface binding peptide) [BoEn P6]

Molecule: SSRPTTYHYKNIYQESYQQRNPAVK(Biotin) [DenP3-A]
O.D.450 (normalized) [2]: 1.000 | EC50 [3]: 28 µM

O.D.450 [1]: 0.665
Molecule: GYCLRGDEPAVCSG (Synthetic oral-surface binding peptide) [BoEn P3]

O.D.450 [1]: 2.02
Molecule: THNMSHFPPSGHPKRTAT (Synthetic oral-surface binding peptide) [BoEn P8]

Molecule: SSRPHKNENIMQYNVNDRWHITPAK(Biotin) [DenP32-A]
O.D.450 (normalized) [2]: 1.135 | EC50 [3]: 25 µM

O.D.450 [1]: 0.797
Molecule: NFCETQLDLSVCTV (Synthetic oral-surface binding peptide) [BoEn P5]

O.D.450 [1]: 0.641
Molecule: EPPTRTRVNNHTVTVQAQQH (Synthetic oral-surface binding peptide) [BoEn P2]

Molecule: TTYHYKNIYQESYQQRNPAVHHHHHH [DenP03-D]
Particles per μm^2 at 10000X [4]: 0.23 Particles per μm^2

Molecule: TTYHYKNIYQESYQQRNPAVK(Biotin) [DenP03-C]
Particles per μm^2 at 10000X [4]: 1.75 Particles per μm^2

B1: PSSSRPTTYHYKNIYQESYQQRNPAVGPEEAAKKEEAAKKPASSRPTTYHYKNIYQESYQQRNPAVGPHHHHHH (peptide)
chain: PSSSRPTTYHYKNIYQESYQQRNPAVGPEEAAKKEEAAKKPASSRPTTYHYKNIYQESYQQRNPAVGPHHHHHH
Delta E*ab Avg [5]: 6.78 | Delta H*ab Avg [5]: 1.60

B2: PSSRPTTYHYKNIYQESYQQRNPAVGPEEAAKKEEAAKKPASSRPTTYHYKNIYQESYQQRNPAVGSSGPGSSKQPNKQPNKQPNKQPNKQPNKQPNKQPNKQPNKQPNGPHHHHHH (peptide)
chain: PSSRPTTYHYKNIYQESYQQRNPAVGPEEAAKKEEAAKKPASSRPTTYHYKNIYQESYQQRNPAVGSSGPGSSKQPNKQPNKQPNKQPNKQPNKQPNKQPNKQPNKQPNGPHHHHHH
Delta E*ab Avg [5]: 10.70 | Delta H*ab Avg [5]: 2.93

B3: PGSGGGGSPYSETPNDQKPNPHYKVSGTKGGGYSETPNDQKPNPHYKVSGTKGGGYSETPNDQKPNPHYKVSGTKGPGGHHHHHH (peptide)
chain: PGSGGGGSPYSETPNDQKPNPHYKVSGTKGGGYSETPNDQKPNPHYKVSGTKGGGYSETPNDQKPNPHYKVSGTKGPGGHHHHHH
modifications: Synthetic peptide composition
Particles per um^2 at 5000X [6]: 0.44 Particles per um^2
